Reference: article PMC10637926 (Heliyon, 2023)

Target: AChE enzyme from Electrophorus electricus (electric eel) (Electrophorus electricus, UniProt O42275)
Assay: In vitro AChE inhibition, Ellman spectrophotometric procedure
Type: biochemical
Details: for inhibition at 100 µM: read-out: AChE inhibition, mean of R1-R3; for IC50: IC50 against AChE, dose dependent assay, 412 nm

Sequence of AChE enzyme from Electrophorus electricus (electric eel) (O42275 24-633): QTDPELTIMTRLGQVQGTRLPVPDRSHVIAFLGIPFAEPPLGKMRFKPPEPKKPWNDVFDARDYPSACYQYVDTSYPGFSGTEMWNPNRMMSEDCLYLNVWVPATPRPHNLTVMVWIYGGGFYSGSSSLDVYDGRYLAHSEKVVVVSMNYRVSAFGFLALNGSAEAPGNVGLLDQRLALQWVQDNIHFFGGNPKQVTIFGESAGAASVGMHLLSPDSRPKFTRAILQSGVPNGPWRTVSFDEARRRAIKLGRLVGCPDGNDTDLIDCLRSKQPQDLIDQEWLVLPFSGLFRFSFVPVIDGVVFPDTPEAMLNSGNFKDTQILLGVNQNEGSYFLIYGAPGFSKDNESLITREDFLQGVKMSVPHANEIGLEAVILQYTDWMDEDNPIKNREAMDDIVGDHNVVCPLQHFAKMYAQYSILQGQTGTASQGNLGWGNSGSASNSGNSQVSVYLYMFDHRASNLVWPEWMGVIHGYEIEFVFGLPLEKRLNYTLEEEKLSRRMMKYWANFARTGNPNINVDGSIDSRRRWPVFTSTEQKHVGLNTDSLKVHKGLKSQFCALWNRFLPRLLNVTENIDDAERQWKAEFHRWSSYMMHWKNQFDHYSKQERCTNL

For O=c1c(O)c(-c2ccc(O)c(O)c2)oc2cc(O)cc(O)c12 [Quercetin], the inhibition at 100 µM was 85.7%.
In the case of O=c1cc(-c2ccc(O)cc2)oc2cc(O)cc(O)c12 [Apigenin], the IC50 is reported as 13.8 µM and the inhibition at 100 µM is reported as 80%.
COc1c(O)cc(O)c2c(=O)cc(-c3ccccc3)oc12 [Wogonin] was tested, and the IC50 was 15.5 µM and the inhibition at 100 µM was 80.3%.
